ChEMBL document CHEMBL3112560 (Bioorg Med Chem Lett, 2014)

What was measured:
[1] = Competitive inhibition of VGLUT-mediated [3H]-L-Glu uptake into synaptic vesicles in rat brain by Lineweaver-Burk plot analysis; assay type: tissue-based
[2] = organism: Rattus norvegicus; assay: Inhibition of VGLUT in rat brain assessed as [3H]-L-Glu uptake into synaptic vesicles at 250 uM relative to control; assay type: tissue-based
[3] = Inhibition of VGLUT-mediated [3H]-L-Glu uptake into synaptic vesicles in rat brain; assay type: tissue-based
[4] = Inhibition of VGLUT (unknown origin); parameters: species or system Homo sapiens

Compound	Ki [1]	inhibition [2]	IC50 [3]	Ki [4]
CC(=O)[C@H]1CC[C@H]2[C@@H]3CC[C@@H]4C[C@@H](OS(=O)(=O)O)CC[C@]4(C)[C@H]3CC[C@]12C	22 µM	15%	42 µM	–
C[C@]12CC[C@@H]3c4ccc(O)cc4CC[C@H]3[C@@H]1CCC2=O	–	98%	–	–
O=C(O)c1cc(C(=O)O)c2c(ccc3cc4ccccc4cc32)n1	–	17%	71 µM	–
CC(=O)O[C@H]1CC[C@@]2(C)C(=CC[C@H]3[C@@H]4CC[C@H](C(C)=O)[C@@]4(C)CC[C@@H]32)C1	–	86%	–	–
O=C(O)c1cc(C(=O)O)c2ccc3cc4ccccc4cc3c2n1	–	26%	70 µM	–
N[C@@]1(C(=O)O)CC[C@@H](C(=O)O)C1	–	–	–	700 µM
C[C@]12CC[C@@H]3c4ccc(OC(=O)CCC(=O)O)cc4CC[C@H]3[C@@H]1CCC2=O	–	109%	–	–
Cc1cc(-c2ccc(/N=N/c3c(S(=O)(=O)O)cc4cc(S(=O)(=O)O)cc(N)c4c3O)c(C)c2)ccc1/N=N/c1c(S(=O)(=O)O)cc2cc(S(=O)(=O)O)cc(N)c2c1O [TRYPAN BLUE]	–	–	–	0.05 µM
CC(=O)C1CCC2C3CC=C4CC(OS(=O)(=O)O)CCC4(C)C3CCC12C (centres undefined)	–	31%	–	–
CC(=O)[C@H]1CC[C@H]2[C@@H]3CC=C4C[C@@H](O)CC[C@]4(C)[C@H]3CC[C@]12C	–	100%	–	–
